The values that follow come from patent publication US12053473B2, “Benzylamino substituted quinazolines and derivatives as SOS1 inhibitors” (priority 2016, dated 2024).

The structures appear in SMILES notation.

The term IC50 denotes the point on the concentration scale where inhibition reaches its midpoint.

In one assay the target is SOS1 and KRAS G12D (protein-protein interaction) (Homo sapiens, UniProt Q07889). Kind of assay: KRAS::SOS1 AlphaScreen binding assay.
Settings: not given
The protocol:
KRAS::SOS1 AlphaScreen Binding Assay
Low IC50 values are indicative of high potency of the SOS1 inhibitor compound in this assay setting:
10 nM (final assay concentration) KRAS G12D, 10 μM (final assay concentration) GDP and 5 nM (final assay concentration) GST-SOS1 are mixed in assay buffer prior to use and kept at room temperature.
AlphaLSA Glutathione Acceptor Beads and AlphaScreen Streptavidin Donor Beads are mixed in assay buffer at a concentration of 10 μg/mL (final assay concentration) each prior to use and kept at room temperature.
Compounds are diluted to a final start concentration of 100 μM and are tested in duplicate. […] For compound a start concentration of 100 μM, 150 nL of compound solution is transferred per well in 11 concentrations in duplicate with serial 1:5 dilutions.
The assay is run using a fully automated robotic system in a darkened room below 100 Lux. 10 μL of KRAS::SOS1 GDP mix is added into columns 1-24 to the 150 nL of compound solution (final dilution in the assay 1:100, final DMSO concentration 1%).
After a 30 minute incubation time 5 μL of bead mix is added into columns 1-23. Plates are kept at room temperature in a darkened incubator. After a further 60 minute incubation, the signal is measured using a PerkinElmer Envision HTS Multilabel Reader using the AlphaScreen specifications from PerkinElmer. Each plate contains the following controls: • diluted DMSO+KRAS::SOS1 GDP mix+bead mix • diluted DMSO+KRAS::SOS1 GDP mix Result Calculation:
IC50 values are calculated and analyzed using a 4 parametric logistic model.
Take `Cc1nc(N[C@H](C)c2cccc(C(F)(F)F)c2F)c2cc([C@]3(O)CC[C@@H](O)CC3)ccc2n1` [I-61]: the IC50 is 8 nM.

Still in this assay, the particulars now being: assay buffer with 100 μM EDTA (values marked with an asterisk); read-out: IC50 (SOS1).
In the case of `Cc1nc(N[C@H](C)c2cccc(C(F)(F)F)c2)c2cc(C3=CCNCC3)ccc2n1` [I-171], the IC50 worked out at 18 nM.
Still for that read-out and setting: then `Cc1cccc([C@@H](C)Nc2nc(C)nc3ccc(C4CCS(=O)(=O)CC4)cc23)c1` [I-161], with 29 nM.

Staying with this assay, now noted: assay buffer without EDTA (values not marked with an asterisk); read-out: IC50 (SOS1).
Take `Cc1cccc([C@@H](C)Nc2nc(C)nc3cc(C)c(C4CCN(CC(=O)O)CC4)cc23)c1` [I-291]: the 50% inhibitory concentration (IC50) is 10 nM.
Still for that read-out and setting: the result for `COc1cc2nc(C)nc(N[C@H](C)c3cccc(C(F)(F)CO)c3)c2cc1C1CCN(C(C)=O)CC1` [I-166] reads 2 nM; that for `COc1cc2nc(C)nc(N[C@H](C)c3cccc(C4(O)COC4)c3)c2cc1C1=CCN(C(C)=O)CC1` [I-17], 34 nM; that for `Cc1cccc([C@@H](C)Nc2nc(C)nc3c(C)cc(C4CCN(C5CCOC5)CC4)cc23)c1` (stereo partly shown) [I-290], 28 nM.
Same read-out and setting: the result for `CC(=O)O[C@H]1CC[C@](O)(c2ccc3nc(C)nc(N[C@H](C)c4cccc(C(F)(F)F)c4)c3c2)CC1` [I-67] reads 26 nM.
Same read-out and setting: then `CC(=O)N1CCC(O)(c2ccc3nc(C)nc(N[C@H](C)c4cccc(C(F)(F)F)c4)c3c2)CC1` [I-48], with 15 nM.
On to `COCC(=O)N1CCC(O)(c2cc3c(N[C@H](C)c4cccc(C(F)(F)F)c4F)nc(C)nc3cc2OC)CC1` [I-46], for which the IC50 turned out to be 4 nM.
Still for that read-out and setting: then `Cc1nc(N[C@H](C)c2cc(N)cc(C(F)(F)F)c2)c2cc([C@H]3CC[C@@H](O)CC3)ccc2n1` [I-66], with 43 nM.
On to `COc1cc2nc(C)nc(N[C@H](C)c3cccc(C(F)(F)CO)c3)c2cc1C1CCOCC1` [I-164], for which the half-maximal inhibitory concentration (IC50) is 3 nM.
Same read-out and setting: then `CC(=O)N1CCC(O)(c2cc(C)c3nc(C)nc(N[C@H](C)c4cccc(C(F)(F)F)c4)c3c2)CC1` [I-43], with 8 nM; and `COc1cc2nc(C)nc(N[C@H](C)c3cccc(C(F)(F)F)c3)c2cc1C1(O)CCN(C(C)=O)CC1` [I-44], with 4 nM.
The same measure, in the same setting: then `COc1cc2nc(C)nc(N[C@H](C)c3cccc(C(F)(F)F)c3)c2cc1-c1ccc(C(=O)N(C)C)cn1` [I-191], with 35 nM.
Consider `Cc1nc(N[C@H](C)c2cccc(C(F)(F)F)c2)c2cc(C3(O)CCN(C(=O)N(C)C)CC3)ccc2n1` [I-50], for which the IC50 came to 23 nM.
For the molecule `COc1cc2nc(C)nc(N[C@H](C)c3cccc(C4(O)COC4)c3)c2cc1O[C@H]1CCOC1` [I-16], the IC50 is 38 nM.

Still in this assay, the particulars now being: read-out: IC50 (SOS1).
Turning to `CCN(C)C(=O)[C@H]1CC[C@H](c2ccc3nc(C)nc(N[C@H](C)c4cc(N)cc(C(F)(F)F)c4)c3c2)CC1` [I-238], the IC50 worked out at 3 nM.
Same read-out and setting: the result for `Cc1nc(N[C@H](C)c2cc(N)cc(C(F)(F)F)c2)c2cc(C3CCS(=O)(=O)CC3)c(C)cc2n1` [I-321] reads 3 nM; that for `COc1cc2nc(C)nc(N[C@H](C)c3cccc(C(F)(F)F)c3C)c2cc1[C@H]1CC[C@H](C(=O)N(C)CCO)CC1` [I-294], 5 nM.
The same measure, in the same setting: the result for `Cc1nc(N[C@H](C)c2cccc(C(F)(F)F)c2)c2cc([C@H]3CC[C@H](C(=O)N(C)C)CC3)ccc2n1` [I-229] reads 7 nM; that for `Cc1nc(N[C@H](C)c2cc(N)cc(C(F)(F)F)c2)c2cc(C3CCS(=O)(=O)CC3)cc(C)c2n1` [I-316], 6 nM; that for `COc1cc2nc(C)nc(N[C@H](C)c3cc(N)cc(C(F)(F)F)c3F)c2cc1-c1ccc(=O)n(C)c1` [I-110], 8 nM.
On the same count and under the same terms, then `Cc1nc(N[C@H](C)c2cc(N)cc(C(F)(F)F)c2)c2cc(C3CCN(C(=O)CN(C)C)CC3)ccc2n1` [I-313], with 3 nM; and `Cc1nc(N[C@H](C)c2cc(N)cc(C(F)(F)F)c2)c2cc([C@H]3CC[C@H](C(=O)N(C)[C@H]4CCOC4)CC3)ccc2n1` [I-250], with 4 nM.
As for `Cc1nc(N[C@H](C)c2cc(N)cc(C(F)(F)F)c2)c2cc([C@H]3CC[C@H](C(=O)N(C)C)CC3)ccc2n1` [I-298], the IC50 stood at 3 nM.
As to `COc1cc2nc(C)nc(N[C@H](C)c3cccc(C)c3)c2cc1C1CCS(=O)(=O)CC1` [I-312], the IC50 is 18 nM.
As for `Cc1nc(N[C@H](C)c2cc(N)cc(C(F)(F)F)c2)c2cc([C@H]3CC[C@H](C(=O)N(C)C[C@H](C)O)CC3)ccc2n1` [I-254], the 50% inhibitory concentration (IC50) worked out at 2 nM.
On the same count and under the same terms, the result for `COc1cc2nc(C)nc(N[C@H](C)c3cc(N)cc(C(F)(F)F)c3)c2cc1-c1cnn(CC(=O)N(C)C)c1` [I-84] reads 6 nM; that for `COCC(=O)N1CCC(c2cc3c(N[C@H](C)c4cccc(C)c4)nc(C)nc3cc2OC)CC1` [I-282], 20 nM; that for `Cc1nc(N[C@H](C)c2cc(N)cc(C(F)(F)F)c2)c2cc(-c3ccn(C)c(=O)c3)c(C)cc2n1` [I-348], 7 nM.
For the molecule `Cc1nc(N[C@H](C)c2cccc(C(F)(F)F)c2)c2cc([C@H]3CC[C@@H](C(=O)N(C)C4COC4)CC3)ccc2n1` [I-233], the half-maximal inhibitory concentration (IC50) stood at 38 nM.
Still for that read-out and setting: then `Cc1nc(N[C@H](C)c2cccc(C(F)(F)F)c2)c2cc(C3CCN(CC(=O)N(C)C)CC3)ccc2n1` [I-273], with 11 nM; and `COc1cc2nc(C)nc(N[C@H](C)c3cccc(C)c3)c2cc1[C@H]1CC[C@H](C(=O)N(C)C)CC1` [I-267], with 9 nM; and `Cc1nc(N[C@H](C)c2cc(N)cc(C(F)(F)F)c2)c2cc([C@H]3CC[C@@H](C(=O)N(C)[C@@H]4CCOC4)CC3)ccc2n1` [I-243], with 9 nM.
For the molecule `Cc1nc(N[C@H](C)c2cc(N)cc(C(F)(F)F)c2)c2cc([C@H]3CC[C@H](C(=O)N(C)CC(C)(C)O)CC3)ccc2n1` [I-258], the half-maximal inhibitory concentration (IC50) amounted to 3 nM.
As for `COc1cc2nc(C)nc(N[C@H](C)c3cc(N)cc(C(F)(F)F)c3)c2cc1[C@H]1CC[C@H](C(=O)N2CCOCC2)CC1` [I-359], the IC50 was 2 nM.
Same read-out and setting: then `COCCN1CCN(C(=O)[C@H]2CC[C@H](c3cc4c(N[C@H](C)c5cc(N)cc(C(F)(F)F)c5F)nc(C)nc4cc3OC)CC2)CC1` [I-246], with 2 nM; and `COc1cc2nc(C)nc(N[C@H](C)c3cc(N)cc(C(F)(F)F)c3)c2cc1-c1ccc(=O)n(C)c1` [I-108], with 8 nM.
Regarding `COc1cc2nc(C)nc(N[C@H](C)c3cc(N)cc(C(F)(F)F)c3F)c2cc1C1CCS(=O)(=O)CC1` [I-311], the IC50 was found to be 6 nM.
`Cc1nc(N[C@H](C)c2cccc(C(F)(F)F)c2)c2cc(-c3ccc(=O)n(C)c3)c(C)cc2n1` [I-109]: the 50% inhibitory concentration (IC50) came to 25 nM.
Same read-out and setting: the result for `COCCN1CCN(C(=O)[C@H]2CC[C@H](c3ccc4nc(C)nc(N[C@H](C)c5cc(N)cc(C(F)(F)F)c5)c4c3)CC2)CC1` [I-240] reads 2 nM; that for `COCCN(C)C(=O)[C@H]1CC[C@@H](c2ccc3nc(C)nc(N[C@H](C)c4cc(N)cc(C(F)(F)F)c4)c3c2)CC1` [I-237], 9 nM.
Same read-out and setting: then `Cc1cccc([C@@H](C)Nc2nc(C)nc3ccc([C@H]4CC[C@H](C(=O)N5CCC(O)C5)CC4)cc23)c1` (stereo partly shown) [I-266], with 25 nM; and `CCn1cc(-c2cc3c(N[C@H](C)c4cc(N)cc(C(F)(F)F)c4)nc(C)nc3cc2C)ccc1=O` [I-347], with 6 nM; and `Cc1nc(N[C@H](C)c2cccc(C(F)(F)F)c2)c2cc(C3=CCC(C(=O)N(C)C)CC3)ccc2n1` (stereo partly shown) [I-222], with 19 nM.
`Cc1nc(N[C@H](C)c2cccc(C(F)(F)F)c2)c2cc(C(C)CC(=O)NCC(F)(F)F)c(C)cc2n1` (stereo partly shown) [I-380]: the half-inhibitory concentration (IC50) came to 42 nM.
The same measure, in the same setting: the result for `COc1cc2nc(C)nc(N[C@H](C)c3cccc(C(F)(F)F)c3)c2cc1C(C)CC(=O)NC1CC1` (stereo partly shown) [I-383] reads 21 nM; that for `Cc1nc(N[C@H](C)c2cc(N)cc(C(F)(F)F)c2)c2cc(-c3cc4n(n3)CCC(=O)N4)ccc2n1` [I-90], 7 nM.

The same assay, now with this note: read-out: IC50 (SOS1); assay buffer without EDTA (values not marked with an asterisk).
Turning to `Cc1nc(N[C@H](C)c2cccc(C(F)(F)F)c2C)c2cc(C3(O)CCC(O)CC3)ccc2n1` (stereo partly shown) [I-63], the half-inhibitory concentration (IC50) is 9 nM.

Staying with this assay, now noted: values marked with * in the table; read-out: IC50 (SOS1).
Turning to `CNC(=O)Cn1cc(-c2ccc3nc(C)nc(N[C@H](C)c4cccc(C(F)(F)F)c4)c3c2)ccc1=O` [I-344], the IC50 came out at 37 nM.
Turning to `Cc1cccc([C@@H](C)Nc2nc(C)nc3ccc(-c4ccc(=O)[nH]c4)cc23)c1` [I-99], the IC50 was 29 nM.
For `Cc1cccc([C@@H](C)Nc2nc(C)nc3ccc([C@H]4CC[S@@](=N)(=O)CC4)cc23)c1` [I-331], the IC50 was found to be 25 nM.
Still for that read-out and setting: the result for `COc1cc2nc(C)nc(N[C@H](C)c3cccc(C)c3)c2cc1-c1ccn(CC(=O)N(C)C)c(=O)c1` [I-338] reads 39 nM; that for `Cc1nc(N[C@H](C)c2cccc(C(F)(F)F)c2)c2cc(-c3ccn(CC(=O)N(C)C)c(=O)c3)ccc2n1` [I-337], 37 nM.
`COc1cc2nc(C)nc(N[C@H](C)c3cccc(C)c3)c2cc1-c1ccc(=O)[nH]c1` [I-101]: the half-maximal inhibitory concentration (IC50) turned out to be 28 nM.
The same measure, in the same setting: the result for `Cc1cccc([C@@H](C)Nc2nc(C)nc3ccc(-c4cc5n(n4)CCC(=O)N5)cc23)c1` [I-87] reads 18 nM.
Turning to `Cc1cccc([C@@H](C)Nc2nc(C)nc3ccc(C4CCS(=N)(=O)CC4)cc23)c1` (stereo partly shown) [I-330], the half-maximal inhibitory concentration (IC50) came out at 20 nM.
